Cytotoxicity data for 98 compounds are collected here from ChEMBL document CHEMBL3507680, “University of Dundee, Gates Library screen for HepG2 cell viability”.

A short description of the data set: Human HepG2 cell viability assay in 384 well format. Particulars: HepG2 cells, read-out: Inhibition. On the set-up: dose 125 nL, time 70.5 hour; concentration not given beside the values. The format is toxicity, cell-based.
Take `O=C(c1ccno1)N1CCOC[C@H](Oc2ccc(C(F)(F)F)cc2)C1`: the cytotoxicity at 70.5 h is -0.658%.
Take `CCNC(=O)C(C)Oc1ccc(N(C)S(C)(=O)=O)cc1` (stereo not drawn): the cytotoxicity at 70.5 h is -5.5%.
Consider `CCCn1[nH]cc/c1=N\C(=O)CN1CCOC(Cn2cc(C)cn2)C1` (stereo not drawn), for which the cytotoxicity at 70.5 h is -14.6%.
As for `O=C(c1n[nH]c2c1CN(C1CCOC1)CC2)N1CCOCC1` (stereo not drawn), the figure is -2.91%; as for `CC(=O)N1CCc2nnc(C3CCCCN3CC3CC3)n2CC1` (stereo not drawn), -13%.
For `CNC(=O)COc1ccc(CNCc2cc(F)ccc2F)cc1`, the cytotoxicity at 70.5 h is -2.81%.
On to `O=C(COCC(F)(F)F)NS(=O)(=O)c1ccc2c(c1)OCCCO2`, for which the cytotoxicity at 70.5 h is -6.81%.
Turning to `CCNc1ncc(C(=O)N2Cc3nc(C)[nH]c(=O)c3C2)cn1`, the cytotoxicity at 70.5 h amounted to 4.44%.
For the compound `O=C1CCN(C(=O)NCc2ccccc2Oc2ccccc2)CCN1`, the cytotoxicity at 70.5 h was found to be 2.87%.
Consider `O=C([C@H]1C[C@@H]2CCN(C3CCOCC3)C[C@H]2O1)N1CCCC1`, for which the cytotoxicity at 70.5 h was -4.47%.
As to `Cc1noc(CNC(=O)C(C)(C)NC(=O)OC(C)(C)C)n1`, the cytotoxicity at 70.5 h was 18.7%.
With `NC(=O)N1CCCC1COC(=O)c1ccc(F)cc1Br` (stereo not drawn) the figure was 12.5%; with `CNC(=O)CC1CCN(C(=O)NCC2(c3ccccc3F)CC2)CC1`, -3.18%.
For the compound `CCc1nc(CNC(=O)C2CCC(=O)N(Cc3ccccc3F)C2)no1` (stereo not drawn), the cytotoxicity at 70.5 h was -8.67%.
In the case of `CCCn1ccnc1CN1CCc2[nH]cnc2C1Cc1ccccc1` (stereo not drawn), the cytotoxicity at 70.5 h is -4.4%.
For the compound `Cc1ncc(C(=O)N2CCCC(n3nc(C)nc3C)C2)c(C(C)C)n1` (stereo not drawn), the cytotoxicity at 70.5 h is -4.64%.
As for `CSc1cccc(CN2CCC(CCC(=O)Nc3ccccc3)CC2)c1`, the figure is -8.78%; as for `O=C(NCC1CC1)C1CCC2(CCN(C(=O)c3ccoc3)CC2)O1` (stereo not drawn), -20%.
Consider `NC(=O)N1CCCC(C(=O)NCCOc2ccc3c(c2)OCO3)C1` (stereo not drawn), for which the cytotoxicity at 70.5 h came out at 2.99%.
With `CC(C)N1CCCC(CN(C)c2ccc(Cn3ccnc3)cn2)C1` (stereo not drawn), the cytotoxicity at 70.5 h is -12.6%.
Turning to `Cc1cnn(C2CCCN(C(=O)c3cc[nH]n3)C2)c1` (stereo not drawn), the cytotoxicity at 70.5 h is -5.43%.
Regarding `CN(C)C[C@@H]1CN(Cc2ccccc2C#N)C[C@@H]1CO`, the cytotoxicity at 70.5 h came to 2.25%.
As for `Cn1cc2ncn(CCNc3cccnc3)c(=O)c2n1`, the cytotoxicity at 70.5 h is -3.81%.
As for `c1ccc(CCCN2CCN(CCn3cncn3)CC2)cc1`, the figure is -3.65%; as for `COC(=O)CC1CCCCN1CC(=O)NCCc1ccc(F)cc1` (stereo not drawn), 1.06%.
With `CCc1ccc(C(=O)N2CCN(CC(C)O)CC2)o1` (stereo not drawn), the cytotoxicity at 70.5 h was 2.04%.
As to `Cc1ccncc1C(=O)N1CCCC(C(=O)CCc2ccccc2)C1` (stereo not drawn), the cytotoxicity at 70.5 h is -7.97%.
As for `CCN1CCC(Cn2ccc3ccc(C(=O)OC)cc3c2=O)C1` (stereo not drawn), the figure is -6.6%.
In the case of `CC(=O)N[C@@H]1CN(C(=O)c2ccoc2)C[C@H]1c1ccc(C)cc1`, the cytotoxicity at 70.5 h was -13.3%.
Turning to `Cc1cnc(NC(=O)c2csc(NC3CCCC3)n2)s1`, the cytotoxicity at 70.5 h is 43.8%.
Consider `Cc1ccc(CNC(=O)Cc2c(C)nc3c(c2C)c(=O)[nH]n3C)cc1`, for which the cytotoxicity at 70.5 h is 4.93%.
Take `OCCn1nccc1C1CCN(CCCOc2ccc(F)cc2)CC1`: the cytotoxicity at 70.5 h is -1.62%.
Turning to `CCOc1ccc(CN(CC)C(=O)c2ccc(C)[nH]c2=O)cc1OC`, the cytotoxicity at 70.5 h is -0.243%.
Regarding `Cc1ccc(C2CSCCN2C(=O)c2ccsc2)o1` (stereo not drawn), the cytotoxicity at 70.5 h is -6.25%.
As for `NCC(=O)N1CCCC(c2cncc(Nc3ncccn3)n2)C1` (stereo not drawn), the cytotoxicity at 70.5 h is -13.9%.
With `N#Cc1cn(CCCN2CCc3ccccc32)c(=O)[nH]c1=O` the figure was 21.5%; with `Cc1ccc(CNC(=O)CCSCc2csc(C)n2)cn1`, -11.2%.
As to `Cc1noc(C)c1S(=O)(=O)NCC(O)c1ccc2c(c1)CCO2` (stereo not drawn), the cytotoxicity at 70.5 h came out at 17.6%.
For the compound `CC(C)(C)C1CCC(O)(CNC(=O)CCS(C)(=O)=O)CC1` (stereo not drawn), the cytotoxicity at 70.5 h is -4.23%.
As to `CN(CCO)Cc1nnc(C2CCN(C(=O)c3ccccn3)CC2)n1C`, the cytotoxicity at 70.5 h turned out to be 1.55%.
On to `O=C(Nc1cccc(Cl)c1)c1nn(C2CCS(=O)(=O)C2)c2c1CCCC2` (stereo not drawn), for which the cytotoxicity at 70.5 h was 13.9%.
On to `O=S(=O)(C1CC1)N1CCc2ncnc(-c3ccsc3)c2CC1`, for which the cytotoxicity at 70.5 h is -0.114%.
`COCCN(C)C[C@H]1C[C@H](CO)CN(C(=O)c2ccc(=O)n(C)c2)C1`: the cytotoxicity at 70.5 h was -3.23%.
With `COCCN1C[C@@H]2CCCO[C@@H]2[C@H](N(C)Cc2ccco2)C1` the figure was -2.22%; with `O=C(c1ccccn1)N1CCn2cnc(COCC3CC3)c2C1`, -1.29%; with `CCNC(=O)C1CCN(c2cc(-c3ccccc3)nc3ccnn23)C1` (stereo not drawn), -0.497%.
With `O=S(=O)(Nc1cnc(N2CCCC2)nc1)c1ccc(OC(F)(F)F)cc1` the figure was -4.76%; with `CCOC[C@]12COC[C@H]1CN(Cc1ccc3c(c1)OCO3)C2`, -6.35%.
Consider `CCc1ccc2c(c1)C(CCNC(=O)Cc1ccc(F)cc1)C(=O)N2` (stereo not drawn), for which the cytotoxicity at 70.5 h came to 11.8%.
`Cc1nnc(N2C[C@@H]3CCCO[C@@H]3[C@H](N(C)C)C2)s1`: the cytotoxicity at 70.5 h is 26.3%.
With `CCOc1ccc(CNC(C)c2ccc3[nH]c(=O)[nH]c3c2)cc1` (stereo not drawn), the cytotoxicity at 70.5 h was 1.32%.
For `CC(=O)N1CC[C@H]2CC(=O)N(C3CC3)CC[C@H]2C1`, the cytotoxicity at 70.5 h turned out to be 14.2%.
`O=C(c1ccncc1F)N1CCCC(c2nccn2CC2CCC2)C1` (stereo not drawn): the cytotoxicity at 70.5 h is -21.7%.
With `CNC(=O)C1(c2cnccn2)CCCN1C(=O)c1ccccc1` (stereo not drawn) the figure was 17.8%; with `CCOC(=O)CCNC(=O)N1CCCC(CNC(=O)c2ccco2)C1` (stereo not drawn), 3.18%; with `CCn1c(C)nnc1CN(C)C1CCN(CCCOC)C1` (stereo not drawn), 3.25%.
As for `Cc1ccc(NC(=O)C(C)N2CCCN(c3nccs3)CC2)c(C)c1` (stereo not drawn), the cytotoxicity at 70.5 h is -7.1%.
Turning to `CCS(=O)(=O)N1CCC2(CC1)CN(C(=O)N(C)C)Cc1ccccc12`, the cytotoxicity at 70.5 h is -2.71%.
Take `CC(=O)N1CCC[C@@H](NCc2c[nH]c3ccccc23)[C@@H]1c1ccc(C)s1`: the cytotoxicity at 70.5 h is -8.53%.
As for `Cc1csc(C2CCCCN2C(=O)Cn2cncn2)n1` (stereo not drawn), the figure is 20.9%; as for `CC(=O)NCC(=O)N1CCC2(COCc3c(C)nc(N(C)C)nc32)C1` (stereo not drawn), -6.64%.
Turning to `CCOC(=O)CNC(=O)c1cc(-c2ccccc2)nc2ncnn12`, the cytotoxicity at 70.5 h was found to be 1.18%.
Turning to `CC(=O)NCCCn1ncc2c(C)cccc21`, the cytotoxicity at 70.5 h was -10.8%.
In the case of `Cc1ccc(-c2nnc(CN3CCN(c4ccccn4)CC3)o2)cc1`, the cytotoxicity at 70.5 h is 3.67%.
`CC(C)Nc1nnc(SCc2nnc(C(C)(C)C)o2)s1`: the cytotoxicity at 70.5 h was -6.2%.
`N#Cc1ccccc1C(=O)Nc1cccc(CN2CCC(CO)CC2)c1`: the cytotoxicity at 70.5 h is -5.53%.
Take `O=C(NCc1ccccc1Cn1ccnc1)N1CCSCC1`: the cytotoxicity at 70.5 h was -6.06%.
As for `COc1cccc(C(=O)NCc2ccccc2S(=O)(=O)N(C)CCO)c1`, the figure is -4.69%.
Take `N#CCCCOc1cccnc1NC(=O)CC1CCCCC1`: the cytotoxicity at 70.5 h worked out at 39.8%.
On to `CC(C)(C)CC(=O)N1CCc2sccc2C1`, for which the cytotoxicity at 70.5 h was -7.51%.
Take `CCc1ccccc1OCCNCCc1c[nH]cn1`: the cytotoxicity at 70.5 h is 29.6%.
With `CCOCCn1c(=O)[nH]c2cc(C(=O)N(C)CCc3cn[nH]c3)ccc21`, the cytotoxicity at 70.5 h is 18.1%.
For `O=C(NCc1nnc2n1CCCCC2)N(CC1CCOC1)C1CC1` (stereo not drawn), the cytotoxicity at 70.5 h came to 17.7%.
On to `N#CCc1ccc(OCC(=O)NS(=O)(=O)c2ccc(Cl)s2)cc1`, for which the cytotoxicity at 70.5 h is -7.69%.
As for `CCOC(=O)c1nnc2ccccc2c1N1CCN(CC)CC1`, the figure is -7.65%; as for `COC(=O)Cn1c(=O)nc2n1C(=O)N(c1cccc(C)c1)C2`, -7.13%.
Regarding `CCOc1ccc(C#N)cc1NCC(=O)NC(=O)Nc1ccccc1`, the cytotoxicity at 70.5 h is -8.89%.
For `Cc1nn(C)c(C)c1S(=O)(=O)N1CC[C@@H]2O[C@@H](C)C[C@H]2C1`, the cytotoxicity at 70.5 h was -11.2%.
For `O=C(NC1CC1)[C@H]1C[C@H]2OCC[C@H]2N(Cc2cccnc2)C1`, the cytotoxicity at 70.5 h is -7.68%.
For `COc1cccc(Cn2ncnc2CCC(C)N2CCN(C)CC2)c1` (stereo not drawn), the cytotoxicity at 70.5 h was -4.48%.
Take `CN(Cc1ccco1)Cc1cncc2c1CCN(Cc1ccoc1)C2`: the cytotoxicity at 70.5 h was -8.02%.
As to `Cc1cc(C)c(CNC(=O)NCC2Cc3ccccc3O2)c(=O)[nH]1` (stereo not drawn), the cytotoxicity at 70.5 h is -6.51%.
Turning to `COCCC(=O)N1CCCC(CCC(=O)Nc2ccc(Cl)cc2)C1` (stereo not drawn), the cytotoxicity at 70.5 h is -6.03%.
Regarding `Fc1ccc(-c2noc(CN3CCC(c4cc[nH]n4)CC3)n2)cc1`, the cytotoxicity at 70.5 h was -3.56%.
With `Cc1nc(CNC(=O)NCc2cccnc2N(C)C)cs1` the figure was -5.06%; with `Cc1occc1C(=O)N1CCC2(CCC(=O)N(CC(N)=O)C2)CC1`, -2.77%; with `CC(=O)N1CCN([C@@H]2CN(C(=O)c3ccccc3)C[C@H]2O)CC1`, -5.08%.
Take `Cc1cc(C)cc(CN2CCCC2c2noc(C)n2)c1` (stereo not drawn): the cytotoxicity at 70.5 h turned out to be 0.367%.
As for `Cc1n[nH]c2ncc(CNC3CCN(Cc4ccccn4)CC3)cc12`, the cytotoxicity at 70.5 h is -6.34%.
As for `Cc1cc(=O)[nH]c(NC2CCN(S(=O)(=O)c3ccccc3)CC2)n1`, the figure is -2.77%; as for `CCOCC1CN(C)Cc2cnn(CC3CCCC3)c21` (stereo not drawn), -5.11%; as for `Cc1ncsc1CNC(=O)N1CCN(Cc2ccccc2)CC1C` (stereo not drawn), -9.74%.
Consider `CCC(O)CN1CCN(C(=O)c2ccn(-c3ccccc3)n2)CC1` (stereo not drawn), for which the cytotoxicity at 70.5 h turned out to be 2.94%.
As for `CC(C)=CCN1C(=O)[C@H]2CC[C@@H]1CN(c1ncccc1C(N)=O)C2`, the figure is -9.49%.
With `O=C1C(NS(=O)(=O)c2cccc(F)c2)CCN1Cc1ccccc1` (stereo not drawn) the figure was -12%.
With `CN1CC(=O)N(c2ccsc2)CC12CCN(C(=O)Nc1ccccc1)C2` (stereo not drawn) the figure was -4.43%; with `Cn1nc(C#N)c2c1CN(C(=O)c1c[nH]cn1)CCC2`, -7.05%; with `COCC(NC(=O)c1ccoc1C)c1cccc(C(F)(F)F)c1` (stereo not drawn), -2.1%.
